In assay [1] the test system is NMDA receptors (NR1 and NR2). Briefly: NMDA receptor activity in Xenopus oocytes, two-electrode voltage clamp. The class given is cell-based. The conditions noted are these: gintonin 1 μg/ml; Kil6425 10 μM; U73122, U73343 1 μM; 2-APB 100 μM; BAPTA 100 μM 3 h; genistein 10 μM; PP2, PP3 30 μM. The procedure:
cDNAs of NMDA receptor subunits (NR1 and NR2) were employed (Zheng et al., J Neurosci. 17, 8676-8686, 1997). cDNAs (100 ng/40 nl) corresponding to respective NMDA receptor subunits (NR1 and NR2) were injected into animal or vegetal poles of oocytes by use of a […] (VWR Scientific, USA) and incubated for 4-5 days after injection (Zheng et al., J Neurosci. 17, 8676-8686, 1997).
(§1) Xenopus laevis frogs were obtained from Xenopus I (Ann Arbor, Mich.). Their care and handling were in accordance with the highest standards of institutional guidelines. To isolate oocytes, the frogs were operated on under anesthesia with an aerated solution of 3-aminobenzoic acid ethyl ester. Oocytes were separated by treatment with collagenase and agitation for two hours in a Ca^2+-free medium containing 82.5 mM NaCl, 2 mM KCl, 1 mM MgCl2, 5 mM HEPES, 2.5 mM sodium pyruvate, 100 units/ml penicillin and 100 μg/ml streptomycin.
Stage V-VI oocytes were collected and stored in ND96 (96 mM NaCl, 2 mM KCl, 1 mM MgCl2, 1.8 mM CaCl2, and 5 mM HEPES, pH 7.4) supplemented with 50 μg/ml gentamicin. This oocyte containing solution was maintained at 18° C. with continuous gentle shaking while the ND96 medium was changed to a fresh one every day.
Two-electrode voltage-clamp recordings were obtained from individual oocytes placed in a small Plexiglas net chamber (5 ml). Electrophysiological experiments were performed using microelectrodes filled with 3 M KCl (resistance of 0.2-0.7 MΩ) and an Oocyte Clamp amplifier (OC-725C; Warner Instrument, Hamden, Conn.). For physiological recordings of NMDA receptor activity, oocytes were first perfused with Mg^2+-free ND96 (mM: 96 NaOH, 2 KOH, 0.3 CaCl2, 5 HEPES pH 7.6 with methanesulfonic acid). Then, the oocytes were clamped at −60 mV holding potential, followed by recoding NMDA currents (induced by administering […]) (Zheng et al., J Neurosci. 17, 8676-8686, 1997; Chang and Kuo, J Neurosci. 28, 1546-1556, 2008).
(Two-electrode voltage clamp holds a large cell at a set potential and records current.)

For a further assay, the system named is mice. In words: Busulfan-caused diarrhea and mucositis in mice. The conditions noted are these: busulfan 40 mg/kg i.p.; for Diarrhea (cases / mice) / Mucositis (cases / mice): gintonin 100 mg/kg oral 3 days before, observed 10 days. Format: in vivo, mouse. Here is the method:
In this Example, an examination was made of the inhibitory activity of gintonin against chemotherapy-induced diarrhea and mucositis. For this, gintonin-treated mice were administered with busulfan, and observed for diarrhea and mucostitis.
Briefly, mice were orally administered at a dose of 100 mg/kg with gintonin 3 days before intraperitoneal injection with busulfan (40 mg/kg). For the control, physiological saline was used, instead of gintonin.

In a further assay the target is T1, LPA3 receptor (Homo sapiens, UniProt Q9UBY5).
T1 construct: host or cells: B103 rat neuroblastoma cells
T1 sequence (Q9UBY5 1-353): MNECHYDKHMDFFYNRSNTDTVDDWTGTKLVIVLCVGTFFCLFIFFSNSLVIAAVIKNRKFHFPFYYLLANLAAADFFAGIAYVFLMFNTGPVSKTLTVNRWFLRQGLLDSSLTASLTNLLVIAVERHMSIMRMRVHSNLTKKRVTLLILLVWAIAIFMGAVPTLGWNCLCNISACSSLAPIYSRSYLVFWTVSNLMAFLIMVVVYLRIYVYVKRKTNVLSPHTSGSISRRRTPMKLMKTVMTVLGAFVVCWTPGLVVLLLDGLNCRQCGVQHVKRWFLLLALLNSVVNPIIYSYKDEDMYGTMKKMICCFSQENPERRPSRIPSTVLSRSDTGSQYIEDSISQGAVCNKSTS
Briefly: Intracellular free Ca2+ (Fura-2AM) in LPA3-expressing B103 cells. Format: cell-based. Particulars: LPA3-expressing B103 cells; for increase of intracellular calcium level: ginsenosides each 10 μM. From the text: LPA family receptors are endogenous to cells of most organs. B103 rat neuroblastoma cells, known as LPA receptor-null cells (Valentine et al., Biochim Biophys Acta 1780. 597-605) were transiently transfected with a plasmid (vector) carrying one of genes coding for LPA1(edg-2), LPA2(edg-4), LPA3(edg-7), LPA4, LPA5 and LPA6 receptors or a plasmid carrying none of them (empty vector). Two or three days after transfection, the cells are suspended, and made permeable. Then, the permeable cells are treated with Fura-2AM, a fluorescent dye binding to calcium, and then with gintonin, followed by spectrofluorephotometry to examine whether gintonin induces an increase in intracellular free Ca^2+ level.
(1) preparing large quantities of plasmids carrying respective LPA family receptor genes and an empty plasmid carrying none of them through amplification and purification (maxi-preparation); (2) verifying the expression of LPA receptors wherein B103 cells are transfected with haematoglutin (HA)-tagged LPA receptors, and then subjected to Western blotting analysis using an anti-HA primary antibody and a horseradish peroxidase (HRP)-conjugated secondary antibody to develop a color; (3) verifying the expression of LPA receptors wherein B1-3 cells are transfected with haematoglutin (HA)-tagged LPA receptors, and then subjected to confocal laser microscopy using an anti-HA antibody and a fluorescence dye Cy3-conjugated secondary antibody; (4) transfecting the empty plasmid and each of the plasmids carrying LPA family receptor genes into B103 cells; (5) treating the transfected B103 cells with trypsin (0.05% trypsin with EDTA, w/v) 2-3 days post-transfection, to give a cell suspension; (6) culturing the suspended B103 cells with Fura-2AM (2.5 μM); and (7) treating the suspended B103 cells with gintonin and quantifying a change in intracellular free Ca^2+ level in a cuvette by spectrofluorephotometry using Fura-2AM.
Human LPA (lysophosphatidic acid) receptor subtypes, orphan GPCRs (G protein coupled receptors) and plasmids carrying GPCRs were purchased from Missouri S&T resource Center (www.cDNA.org).
The transient transfection of LPA receptor subtypes was carried out with the aid of Lipofectamine 2000 of Invitrogen. A plasmid (10.8 μg) carrying each LPA receptor (LPA1, LPA2, LPA3, LPA4, LPA5, and LPA6) was transfected into B103 cells grown in 10-cm dishes, and incubated for 2 days prior for use in experiments.
In this Example, gintonin, or ginsenoside Rb1 or Rg1 was examined for its ability to induce a transient increase of [Ca^2+]i in Fura-2AM-loaded B103 cells which were transfected with LPA receptors and in Fura-2AM-loaded B103 cells which were not transfected with LPA receptors. To this end, B103 cells (2˜4×10^6/ml) pre-treated with Fura-2AM were suspended in a 1.5 mM Ca^2+-containing buffer or Ca^2+-free buffer, and incubated 37° C. for 30 min, followed by analyzing intracellular calcium levels in the B103 cells in the presence of gintonin or ginsenosides.
Briefly, B103 cells (1˜2×10^6/ml) were mixed with 2.5 μM Fura 2-AM in a Ca^2+ buffer (pH 7.4) containing NaCl 120 mM, KCl 5 mM, MgCl2 1 mM, CaCl2 1.5 mM, glucose 10 mM, and HEPES 25 mM, and a Ca^2+ free buffer (pH 7.4) containing NaCl 120 mM, KCl 5 mM, MgCl2 1 mM, EGTA 0.2 mM, glucose 10 mM, and HEPES 25 mM at 37° C. for 30 min in water bath with shaking according to the Jørgensen method, and washed three times with Ca^2+ buffer or Ca^2+ free buffer to remove excess Fura-2AM.
[Ca^2+]i was estimated in Fura 2AM-loaded cells in suspension using an RF-5300PC intracellular ion measurement system (Shimadzu Corporation, Japan).
Briefly, Fura 2-AM loaded cells were diluted with an experimental medium to a final density of 2˜4×10^6 cells/mL, and transferred to polystyrene cuvettes (Elkay Ultra-VU). The cells were stirred using Teflon-coated magnets, and the cuvette housing was thermostatically controlled at 37° C. The excitation wavelengths were alternated between 340 and 380 nm under computer control. […]
(In general: A change in cytosolic calcium serves as a functional read-out for many receptors and channels.)

For the next assay, the system named is BKCaK+ channels. In words: BKCa K+ channel activity in Xenopus oocytes, two-electrode voltage clamp. Format: cell-based. The conditions noted are these: Kil6425 10 μM; U73122, U73343 1 μM; 2-APB 100 μM; BAPTA-AM; PMA 1 μM. Here is the method:
as §1
Stage V-VI oocytes were collected and stored in ND96 (96 mM NaCl, 2 mM KCl, 1 mM MgCl2, 1.8 mM CaCl2, and 5 mM HEPES, pH 7.4) supplemented with 50 μg/ml gentamicin. This oocyte containing solution was maintained at 18° C. with continuous gentle shaking while the ND96 medium was changed with a fresh one every day.
Two-electrode voltage-clamp recordings were obtained from individual oocytes placed in a small Plexiglas net chamber (5 ml). Electrophysiological experiments were performed using microelectrodes filled with 3 M KCl (resistance of 0.2-0.7 MΩ) and an Oocyte Clamp amplifier (OC-725C; Warner Instrument, CT, USA) to record BKc K^+ channel activity at room temperature (Choi et al., Mol Cells 31, 133-140, 2011). For physiological recordings of BKCaK^+ channel activity, oocytes were first perfused with a Cl^−- and Ca^2+-free solution (mM: 96 NaOH, 2 KOH, 8 Mg-gluconate, 5 HEPES, 5 EGTA, pH 7.4 with methanesulfonic acid) supplemented with 500 μM anthracene-9-carboxylic acid, a Cl^− channel blocker, to block endogenous Cl-channels (Lu et al., J. Biol. Chem. 265, 16190-16194.1990). Then, the oocytes were clamped at −80 mV holding potential, followed by step depolarization from the holding potential to +40 mV at regular intervals of […] for 400 ms to record outward currents.

Consider `O=c1c(-c2ccc(O)cc2)coc2cc(O)cc(O)c12` [Genistein], for which the “effect on gintonin-induced NMDA receptor activation” value in assay [1] is given as “inhibit gintonin-induced NMDA receptor activation”.
In the assay with mice (gintonin 100 mg/kg oral), `CS(=O)(=O)OCCCCOS(C)(=O)=O` [Busulfan, busulfan, reference compound] had a diarrhea morbidity rate of 53.3% and a perianal mucositis morbidity of 46.7%. Besides, in the assay with mice, the “Diarrhea (cases / mice)” value was 8/15 and the “Mucositis (cases / mice)” value was 7/15. Moreover, in the assay with mice (listed as bufulfan), the “Mucositis (cases / mice)” value is 7. Further, the “Diarrhea (cases / mice)” value in the assay on mice (listed as busulfan) is given as 8.
As to `CC(C)(C)n1nc(-c2ccc(Cl)cc2)c2c(N)ncnc21` [PP2], the “effect on gintonin-induced NMDA receptor activation” value in assay [1] is given as “blocked the action of gintonin”.
Turning to `CC(C)=CCC[C@](C)(O[C@@H]1O[C@H](CO[C@@H]2O[C@H](CO)[C@@H](O)[C@H](O)[C@H]2O)[C@@H](O)[C@H](O)[C@H]1O)[C@H]1CC[C@]2(C)[C@@H]1[C@H](O)C[C@@H]1[C@@]3(C)CC[C@H](O[C@@H]4O[C@H](CO)[C@@H](O)[C@H](O)[C@H]4O[C@@H]4O[C@H](CO)[C@@H](O)[C@H](O)[C@H]4O)C(C)(C)[C@@H]3CC[C@]12C` [Rb1, ginsenoside Rb1], at LPA3 receptor, the “increase of intracellular calcium level” value was “no increased intracellular calcium levels were detected”.
Regarding `Nc1ncnc2c1cnn2-c1ccccc1` [PP3], in assay [1], the “effect on gintonin-induced NMDA receptor activation” value is listed as “did not show inhibitory activity”.
With pertussis toxin [PTX], the “lowering of gintonin-induced increase of intracellular calcium level” value with LPA3 receptor (PTX 200 μg/ml, 16 hrs pretreatment, vs cells not treated with PTX) is given as 25%.
Turning to `CC(C)=CCC[C@](C)(O[C@@H]1O[C@H](CO)[C@@H](O)[C@H](O)[C@H]1O)[C@H]1CC[C@]2(C)[C@@H]1[C@H](O)C[C@@H]1[C@@]3(C)CC[C@H](O)C(C)(C)[C@@H]3[C@@H](O[C@@H]3O[C@H](CO)[C@@H](O)[C@H](O)[C@H]3O)C[C@]12C` [Rg1, ginsenoside Rg1], the “increase of intracellular calcium level” value on LPA3 receptor was “no increased intracellular calcium levels were detected”.
As to `CC(C)=CCC[C@](C)(O)[C@H]1CC[C@]2(C)[C@@H]1[C@H](O)C[C@@H]1[C@@]3(C)CC[C@H](O[C@@H]4O[C@H](CO)[C@@H](O)[C@H](O)[C@H]4O[C@@H]4O[C@H](CO)[C@@H](O)[C@H](O)[C@H]4O)C(C)(C)[C@@H]3CC[C@]12C` [Rg3, ginsenoside Rg3], the “increase of intracellular calcium level” value at LPA3 receptor was “no increased intracellular calcium levels were detected”.
In the case of `COc1ccc2c(c1)CC[C@@H]1[C@@H]2CC[C@]2(C)[C@@H](NCCCCCCN3C(=O)CCC3=O)CC[C@@H]12` [U73343], the “effect on gintonin-induced NMDA receptor activation” value in assay [1] is “did not block gintonin-induced NMDA receptor activation”. In addition, the “effect on gintonin-induced BKCaK+ channel activation” value with BKCaK+ channels is “did not block gintonin-induced BKCaK^+ channel activation”.

(Values after US20140234868A1, “USE FOR GLYCOLIPOPROTEIN GINTONIN, ISOLATED AND IDENTIFIED FROM GINSENG, AS A NATURAL MEDICAL-PLANT DERIVED LIGAND” (KONKUK UNIVERSITY INDUSTRIAL COOPERATION CORP., priority 2011, published 2014).)
